Each structure is given as a SMILES string.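 Briefly, cells in 96-well plates were exposed to five compound concentrations for 48 h, and endpoints were estimated by linear interpolation. The concentration for 50% growth inhibition is given as GI50.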 Activity calls are given as the source filed them. No stated cut-off is given here; in the data, active = GI50 up to about 1.1 µM and inactive = higher.

Assay in all cases: growth of human tumour cells (NCI), 48 h
Experiment [1] has as its system SF-539.
Experiment [2] relates to SNB-75.
Experiment [3] deals with SR.
The subject of experiment [4] is UACC-62.
Experiment [5] concerns M14.
Experiment [6] relates to SNB-19.
Experiment [7] has as its system COLO 205.
The subject of experiment [8] is OVCAR-8.
Experiment [9] deals with HOP-62.
The test system of experiment [10] is OVCAR-3.
Experiment [11] concerns NCI-H460.
The test system of experiment [12] is NCI-H522.
Experiment [13] deals with U-251.
In experiment [14] the test system is CCRF-CEM.
In experiment [15] the test system is HL-60.
Experiment [16] has as its system PC-3.
The subject of experiment [17] is KM12.
For experiment [18], the system named is HOP-92.
The subject of experiment [19] is Hs-578T.
Experiment [20] has as its system SK-MEL-2.

On to `CCOC(=O)C(NC(=O)CC)(Nc1ccc(S(=O)(=O)Nc2ncccn2)cc1)C(F)(F)F` (centres undefined), for which the GI50 in experiment [1], in [2], in experiment [3], in experiment [4], in [5] and in experiment [6] was > 100 µM (inactive) throughout. In addition, the GI50 in experiment [7], in [8], in experiment [9], in [10], in [11] and in experiment [12] was > 100 µM (inactive) throughout. Moreover, the GI50 in [13], in experiment [14], in experiment [15], in experiment [16], in [17] and in experiment [18] was > 100 µM (inactive) in each case. Also, the GI50 in experiment [19] is > 100 µM (inactive).
Turning to `Cc1ccc(C2=Nn3c(nc4sc5c(c4c3=O)CCCC5)SC2)cc1`, the GI50 in experiment [1] was > 100 µM (inactive); in [2], 96.4 µM (inactive); in experiment [3] it was > 100 µM (inactive); in [4] it was > 100 µM (inactive); in [7], > 100 µM (inactive); in experiment [8] it was > 100 µM (inactive). The GI50 in experiment [9], in [10], in experiment [11], in experiment [12], in [13] and in experiment [14] was > 100 µM (inactive) each time. Also, the GI50 in experiment [15] is > 100 µM (inactive); in experiment [16], > 100 µM (inactive); in experiment [17] it was > 100 µM (inactive); in [18], > 100 µM (inactive); in experiment [19], 35.7 µM (inactive).
`CCOC(=O)C1=C(C)N(Cc2ccccc2)C2(O)C=CC(=O)C3C(=O)N(c4ccccc4)C(=O)C132` (centres undefined): the GI50 in experiment [1] was 1.6 µM (inactive); in [3], 1.01 µM (active); in experiment [4] it was 1.71 µM (inactive); in [5] it was 1.81 µM (inactive); in experiment [6] it was 7.52 µM (inactive); in experiment [7], 1.51 µM (inactive). Besides, the GI50 is 1.23 µM (inactive) in [8]; 2.35 µM (inactive) in [9]; 1.98 µM (inactive) in [20]; 2.28 µM (inactive) in experiment [10]; 1.81 µM (inactive) in experiment [11]; 1.57 µM (inactive) in experiment [12]. Further, the GI50 in experiment [13] is 2.69 µM (inactive); in experiment [14], 0.735 µM (active); in experiment [15], 1.99 µM (inactive); in experiment [16], 1.92 µM (inactive); in experiment [17], 1.99 µM (inactive); in [18], 2.24 µM (inactive). In addition, in [19], the GI50 is 5.4 µM (inactive).
In the case of `O=S1(=O)c2cnccc2N=C(NCc2cccc3ccccc23)N1c1ccccc1`, the GI50 in experiment [1] was > 100 µM (inactive); in [2], > 100 µM (inactive); in [3], > 100 µM (inactive); in [4], > 22.4 µM (inactive); in experiment [5], > 83.9 µM (inactive); in experiment [6], > 100 µM (inactive). Also, the GI50 in [7] is > 85.7 µM (inactive); in experiment [8], > 93.1 µM (inactive); in [9], > 100 µM (inactive); in experiment [10] it was > 100 µM (inactive); in experiment [11], 60.8 µM (inactive); in experiment [12] it was 30.6 µM (inactive). The GI50 in [13] was 43.8 µM (inactive); in experiment [14], 2.51 µM (inactive); in experiment [15], 1.87 µM (inactive); in [16], 30 µM (inactive); in experiment [17], > 100 µM (inactive); in experiment [18], > 41.2 µM (inactive). The GI50 in experiment [19] is > 73.3 µM (inactive).
In the case of `S=c1nc(Nc2ccc(Cl)cc2)c2c3c(sc2[nH]1)CCCC3`, the GI50 in experiment [3], in experiment [4], in [6], in experiment [7], in [9] and in experiment [20] was > 100 µM (inactive) each time. Also, the GI50 in experiment [10] is > 100 µM (inactive); in [11], > 100 µM (inactive); in [12], 37 µM (inactive); in experiment [13], > 100 µM (inactive); in experiment [14] it was 36.2 µM (inactive); in experiment [15] it was 54 µM (inactive). Also, the GI50 in experiment [16] is 57.7 µM (inactive); in [17] it was > 100 µM (inactive); in experiment [18], 76 µM (inactive); in [19], > 100 µM (inactive).
Take `CCCCCc1c(Cl)nc(Cl)nc1Cl`: the GI50 in experiment [1] was 16 µM (inactive); in experiment [2] it was 0.589 µM (active); in experiment [3], 0.157 µM (active); in experiment [4], 15.3 µM (inactive); in experiment [5], 1.56 µM (inactive); in experiment [6] it was 15.7 µM (inactive). The GI50 is 7.85 µM (inactive) in experiment [7]; 10.4 µM (inactive) in [8]; 22.6 µM (inactive) in [9]; 14.4 µM (inactive) in experiment [10]; 19.5 µM (inactive) in experiment [11]; 0.625 µM (active) in experiment [12]. Besides, the GI50 is 9.27 µM (inactive) in experiment [13]; 0.195 µM (active) in [14]; 2.42 µM (inactive) in experiment [15]; 8.99 µM (inactive) in experiment [16]; 13.9 µM (inactive) in experiment [17]; 5.46 µM (inactive) in experiment [18]. Besides, the GI50 in [19] was 43.3 µM (inactive).
As to `Cc1c(C)c2c(c(N)c1C#N)C(=O)N(N)C2=O`, the GI50 in [1] was > 100 µM (inactive); in [2], 47 µM (inactive); in experiment [3], 26.3 µM (inactive); in [4] it was > 100 µM (inactive); in experiment [5] it was > 100 µM (inactive); in experiment [6] it was > 100 µM (inactive). Moreover, the GI50 in experiment [7], in [8], in [20], in [10], in experiment [11] and in experiment [12] was > 100 µM (inactive) throughout. For the same compound, the GI50 in experiment [13], in [14], in experiment [15], in experiment [16], in experiment [17] and in [18] was > 100 µM (inactive) each time. The GI50 in experiment [19] was > 100 µM (inactive).
Consider `COc1ccc(CCNC(=O)Cc2ccccc2CO)cc1OC`, for which the GI50 in experiment [1], in experiment [2], in experiment [3], in [4], in [5] and in experiment [7] was > 100 µM (inactive) throughout. Also, the GI50 in [8], in [9], in [20], in [10], in experiment [11] and in experiment [12] was > 100 µM (inactive) in each case. In addition, the GI50 in experiment [13], in experiment [14], in experiment [15], in experiment [16], in experiment [17] and in experiment [18] was > 100 µM (inactive) throughout. The GI50 in [19] is > 100 µM (inactive).
For the compound `O=C1C2=Nc3ccccc3C(O)N2c2ccccc21` (centres undefined), the GI50 is 49.3 µM (inactive) in experiment [1]; 23.6 µM (inactive) in experiment [2]; 86.5 µM (inactive) in [3]; 3.51 µM (inactive) in experiment [4]; > 78.2 µM (inactive) in experiment [5]; 74.1 µM (inactive) in [6]. Further, the GI50 is 39.2 µM (inactive) in experiment [7]; 32.3 µM (inactive) in [8]; 65.3 µM (inactive) in experiment [9]; 11.6 µM (inactive) in experiment [10]; 20.2 µM (inactive) in [11]; 8.91 µM (inactive) in experiment [12]. In addition, the GI50 in experiment [13] is > 52.5 µM (inactive); in experiment [14] it was > 92.7 µM (inactive); in [15] it was 2.37 µM (inactive); in experiment [16] it was > 86.9 µM (inactive); in experiment [17] it was > 78.5 µM (inactive); in [18], > 100 µM (inactive). The GI50 in [19] is 40.5 µM (inactive).
As to `CC(=O)O[C@@H]1C[C@]2(C(=O)c3ccccc3)C(=O)C(=O)S[C@]12c1ccccc1`, the GI50 in experiment [1] was 24.2 µM (inactive); in experiment [2], 44 µM (inactive); in experiment [3] it was 32.9 µM (inactive); in [4], 39.7 µM (inactive); in [5], 38.4 µM (inactive); in experiment [6], 39.8 µM (inactive). Besides, the GI50 in experiment [7] is 38.3 µM (inactive); in experiment [8], 36.4 µM (inactive); in [9], 61 µM (inactive); in experiment [20], 38.5 µM (inactive); in experiment [10] it was 69.8 µM (inactive); in experiment [11] it was 45.6 µM (inactive). For the same compound, the GI50 in experiment [12] was 29.6 µM (inactive); in experiment [13], 31.3 µM (inactive); in experiment [15] it was 0.225 µM (active); in experiment [16], 36.5 µM (inactive); in experiment [17], 41.1 µM (inactive); in [18], 47.8 µM (inactive). In addition, the GI50 in experiment [19] is 39.5 µM (inactive).
As to `COc1ccc(-c2oc3c(OC)c(OC)c(OC)c(OC)c3c(=O)c2OC)cc1OC` [3,5,6,7,8,3',4'-HEPTAMETHOXYFLAVONE], the GI50 in experiment [1] is 65.8 µM (inactive); in experiment [3], 19.1 µM (inactive); in experiment [4] it was 48.3 µM (inactive); in experiment [5] it was 41.4 µM (inactive); in [6], > 100 µM (inactive); in experiment [7] it was 65.6 µM (inactive). In addition, the GI50 is 23.6 µM (inactive) in [8]; 14.5 µM (inactive) in experiment [9]; 29.6 µM (inactive) in [20]; 18.7 µM (inactive) in experiment [10]; 19.8 µM (inactive) in experiment [11]; 19.4 µM (inactive) in [12]. Further, the GI50 in [13] was 51.5 µM (inactive); in [14], 25.6 µM (inactive); in experiment [15], 14.1 µM (inactive); in [16], 26.6 µM (inactive); in experiment [17], 47.5 µM (inactive); in experiment [18], 0.0481 µM (active). The GI50 in experiment [19] is 20.9 µM (inactive).

The values are drawn from ChEMBL document CHEMBL1201862, “PubChem BioAssay data set” (2004).
